Experimental data published in patent publication US9212201B2, “Antifungal and antiparasitic polyene macrolides” (priority 2010, dated 2015).
≈ marks a conversion by molar mass, not a printed value. Like-named read-outs stand apart in the source and are kept apart here.

Columns and labels:
C. glabrata = assay: In vitro antifungal susceptibility CLSI M27-A2 (MIC, MFC); format: cell-based; conditions: C. glabrata (10)
C. tropicalis = assay: as above; format: cell-based; conditions: C. tropicalis (10)
C. lusitaniae = assay: as above; format: cell-based; conditions: C. lusitaniae (10)
C. kefyr = assay: as above; format: cell-based; conditions: C. kefyr (10)
C. guilliermondii = assay: as above; format: cell-based; conditions: C. guilliermondii (2)
[1] = system: Other Candida species (C. lipolytica, C. sake, C. sphaerica, C. norvegica); assay: as above; format: cell-based; conditions: Other Candida spp. (4)
A. flavus = assay: In vitro antifungal susceptibility CLSI M38-A (MIC); format: cell-based; conditions: 5 isolates
Description: (§1) In addition, MFC ([…]) was done for each species. The geometric mean (GM) was calculated for each isolate using all three results. All testing was performed in triplicate to verify the reproducibility of the data.
(§2) A total of 31 isolates of Aspergillus were evaluated. This included six different species of Aspergillus which included six strains of A. fumigatus, and 5 strains of A. flavus, A. terreus, A. niger and A. glaucus.

A. fumigatus = assay: as above; format: cell-based; conditions: A. fumigates, 6 isolates
Description: as §1, §2

A. glaucus = assay: as above; format: cell-based; conditions: 5 isolates
Description: as §1, §2

A. niger = assay: as above; format: cell-based; conditions: 5 isolates
Description: as §1, §2

A. terreus = assay: as above; format: cell-based; conditions: 5 isolates
Description: as §1, §2

A. versicolor = assay: as above; format: cell-based; conditions: 5 isolates
Description: as §1, §2

Acremonium spp. = assay: as above; format: cell-based; conditions: 5 isolates
Description: as §1
(§3) Several of the more common molds were also tested and evaluated including five strains of Alternaria, Cladosporium, Scopulariopsis, Acremonium, and Paecilomyces. Also evaluated were some of the more uncommon fungi such as Exophilia jeanselmei (3), Emmonsia parvum (Chrysporium parvum) (2) and Epioccum spp. (2). Conventional ATCC strains of different Candida and Aspergillus species were used as controls.

Alternaria spp. = assay: as above; format: cell-based; conditions: 5 isolates
Description: as §1, §3

Cladosporium spp. = assay: as above; format: cell-based; conditions: 5 isolates
Description: as §1, §3

[2] = system: Emmonsia parvum (Chrysporium parvum); assay: as above; format: cell-based; conditions: 2 isolates
Description: as §1, §3

Epioccum spp. = assay: as above; format: cell-based; conditions: 2 isolates
Description: as §1, §3

Paecilomyces spp. = assay: as above; format: cell-based; conditions: 5 isolates
Description: as §1, §3

Scopulariopsis spp. = assay: as above; format: cell-based; conditions: 5 isolates
Description: as §1, §3

E. jeanselmei = assay: as above; format: cell-based, Exophilia jeanselmei; conditions: 3 isolates
Description: as §1, §3

Coccidioides sp = format: cell-based
Naegleria fowleri = assay: Primary amoebic meningoencephalitis in mice; format: in vivo, Balb/c mice; conditions: 9 mg/kg/day for a total of 10 days
[3] = system: Candida albicans (ATCC 44858); conditions: 3 mg/kg PO; 15-day observation
[4] = 28-day toxicology in rats (clinical chemistry, NOAEL)
[5] = rat sera, amphotericin B 0.5 mg, intravenously three days a week
[6] = rat sera, amphotericin B 1.0 mg, intravenously three days a week
[7] = rat sera, amphotericin B 1.5 mg, intravenously three days a week

C[C@@H]1[C@H](O)[C@@H](C)/C=C/C=C/C=C/C=C/C=C/C=C/C=C/[C@H](O[C@@H]2O[C@H](C)[C@@H](O)[C@H](N)[C@@H]2O)C[C@@H]2O[C@](O)(C[C@@H](O)C[C@@H](O)[C@H](O)CC[C@@H](O)C[C@@H](O)CC(=O)O[C@H]1C)C[C@H](O)[C@H]2C(=O)O [Amphotericin B, amphotericin B]
GM (geometric mean MIC) (C. glabrata): 0.9 µg/mL
MFC (C. glabrata): 1 µg/mL (≈ 1.08 µM)
MIC50 (C. glabrata): 1 µg/mL (≈ 1.08 µM)
MIC90 (C. glabrata): 1 µg/mL (≈ 1.08 µM)
MIC Range (C. glabrata): 0.5 to 1.0 µg/mL
MIC50 (C. glabrata; listed as amphotericin B): 1.0 µg/mL (≈ 1.08 µM)
GM (geometric mean MIC) (C. tropicalis): 0.95 µg/mL
MFC (C. tropicalis): 2 µg/mL (≈ 2.16 µM)
MIC50 (C. tropicalis): 1 µg/mL (≈ 1.08 µM)
MIC90 (C. tropicalis): 1 µg/mL (≈ 1.08 µM)
MIC Range (C. tropicalis): 0.5 to 1.0 µg/mL
GM (geometric mean MIC) (C. lusitaniae): 0.575 µg/mL
MFC (C. lusitaniae): 0.5 µg/mL (≈ 0.541 µM)
MIC50 (C. lusitaniae): 0.5 µg/mL (≈ 0.541 µM)
MIC90 (C. lusitaniae): 1.0 µg/mL (≈ 1.08 µM)
MIC Range (C. lusitaniae): 0.25 to 1.0 µg/mL
GM (geometric mean MIC) (C. kefyr): 1.25 µg/mL
MFC (C. kefyr): 1 µg/mL (≈ 1.08 µM)
MIC50 (C. kefyr): 1 µg/mL (≈ 1.08 µM)
MIC90 (C. kefyr): 2 µg/mL (≈ 2.16 µM)
MIC Range (C. kefyr): 0.12 to 2.0 µg/mL
GM (geometric mean MIC) (C. guilliermondii): 0.5 µg/mL
MFC (C. guilliermondii): 1 µg/mL (≈ 1.08 µM)
MIC Range (C. guilliermondii): 0.5 µg/mL (≈ 0.541 µM)
GM (geometric mean MIC) [1]: 0.95 µg/mL
MFC [1]: 2 µg/mL (≈ 2.16 µM)
MIC50 [1]: 1 µg/mL (≈ 1.08 µM)
MIC Range [1]: 0.5 to 1.0 µg/mL
GM (A. flavus): 4.8 µg/mL
MIC50 (A. flavus): 2 µg/mL (≈ 2.16 µM)
MIC Range (A. flavus): 2 to 16 µg/mL
GM (A. fumigatus): 1.58 µg/mL
MIC50 (A. fumigatus): 2 µg/mL (≈ 2.16 µM)
MIC Range (A. fumigatus): 0.5 to 2 µg/mL
GM (A. glaucus): 0.7 µg/mL
MIC50 (A. glaucus): 0.5 µg/mL (≈ 0.541 µM)
MIC Range (A. glaucus): 0.25 to 1 µg/mL
GM (A. niger): 0.8 µg/mL
MIC50 (A. niger): 1 µg/mL (≈ 1.08 µM)
MIC Range (A. niger): 0.5 to 1 µg/mL
GM (A. terreus): 2.0 µg/mL
MIC50 (A. terreus): 2 µg/mL (≈ 2.16 µM)
MIC Range (A. terreus): 2 to 4 µg/mL
GM (A. versicolor): 0.9 µg/mL
MIC50 (A. versicolor): 1 µg/mL (≈ 1.08 µM)
MIC Range (A. versicolor): 0.25 to 2 µg/mL
GM (Acremonium spp.): 8 µg/mL
MIC50 (Acremonium spp.): 8 µg/mL (≈ 8.66 µM)
MIC Range (Acremonium spp.): 8 µg/mL (≈ 8.66 µM)
GM (Alternaria spp.): 0.25 µg/mL
MIC50 (Alternaria spp.): 0.25 µg/mL (≈ 0.271 µM)
MIC Range (Alternaria spp.): 0.25 to 0.5 µg/mL
GM (Cladosporium spp.): 0.7 µg/mL
MIC50 (Cladosporium spp.): 0.25 µg/mL (≈ 0.271 µM)
MIC Range (Cladosporium spp.): 0.25 to 0.5 µg/mL
GM [2]: 0.25 µg/mL
MIC50 [2]: 0.25 µg/mL (≈ 0.271 µM)
MIC Range [2]: 0.25 µg/mL (≈ 0.271 µM)
GM (Epioccum spp.): 1 µg/mL
MIC50 (Epioccum spp.): 1 µg/mL (≈ 1.08 µM)
MIC Range (Epioccum spp.): 1 µg/mL (≈ 1.08 µM)
GM (Paecilomyces spp.): 1.4 µg/mL
MIC50 (Paecilomyces spp.): 1 µg/mL (≈ 1.08 µM)
MIC Range (Paecilomyces spp.): 0.5 to 2 µg/mL
GM (Scopulariopsis spp.): 0.95 µg/mL
MIC50 (Scopulariopsis spp.): 1 µg/mL (≈ 1.08 µM)
MIC Range (Scopulariopsis spp.): 0.5 to 1 µg/mL
GM (E. jeanselmei): 4.67 µg/mL
MIC50 (E. jeanselmei): 4 µg/mL (≈ 4.33 µM)
MIC Range (E. jeanselmei): 2 to 8 µg/mL
MFC higher than corifungin (Coccidioides sp; 2 C isolates): ≥ 4 fold
MFC (Coccidioides sp; 3 of the C isolates): ≥ 8 µg/mL
MIC (Coccidioides sp; 3 of the C isolates): 4 µg/mL (≈ 4.33 µM)
MIC (Coccidioides sp; Coccidioides sp isolate 1): 2 µg/mL (≈ 2.16 µM)
MFC (Coccidioides sp; Coccidioides sp isolate 1, >96% kill of the inoculum): 8 µg/mL (≈ 8.66 µM)
MIC (Coccidioides sp; Coccidioides sp isolate 2): 4 µg/mL (≈ 4.33 µM)
MFC (Coccidioides sp; Coccidioides sp isolate 2, >96% kill of the inoculum): 8 µg/mL (≈ 8.66 µM)
MIC (Coccidioides sp; Coccidioides sp isolate 3): 1 µg/mL (≈ 1.08 µM)
MFC (Coccidioides sp; Coccidioides sp isolate 3, >96% kill of the inoculum): > 8 µg/mL
MIC (Coccidioides sp; Coccidioides sp isolate 4): 4/4 mcg/mL
MFC (Coccidioides sp; Coccidioides sp isolate 4, >96% kill of the inoculum): 4/4 mcg/mL
MIC (Coccidioides sp; Coccidioides sp isolate 5): 4/4 mcg/mL
MFC (Coccidioides sp; Coccidioides sp isolate 5, >96% kill of the inoculum): 4/4 mcg/mL
survival (Naegleria fowleri): no improvement in survival over the control
increase in survival rate [3]: 80%
ALB (Albumin) [4, 5]: 3.2
ALK (Alkaline Phosphatase) [4, 5]: 74
ALT (Alanine Aminotransferase) [4, 5]: 37
BUN (Blood Urea Nitrogen) [4, 5]: 15
Creat (Creatinine) [4, 5]: 0.6
GLOB (Globulin) [4, 5]: 2.6
Na (Sodium) [4, 5]: 140
ALB (Albumin) [4, 6]: 3.2
ALK (Alkaline Phosphatase) [4, 6]: 61
ALT (Alanine Aminotransferase) [4, 6]: 37
BUN (Blood Urea Nitrogen) [4, 6]: 16
Creat (Creatinine) [4, 6]: 0.6
GLOB (Globulin) [4, 6]: 2.7
Na (Sodium) [4, 6]: 140
TP (Total Protein) [4, 6]: 6.0
ALB (Albumin) [4, 7]: 3.4
ALK (Alkaline Phosphatase) [4, 7]: 69
ALT (Alanine Aminotransferase) [4, 7]: 36
BUN (Blood Urea Nitrogen) [4, 7]: 17
Creat (Creatinine) [4, 7]: 0.6
GLOB (Globulin) [4, 7]: 2.4
Na (Sodium) [4, 7]: 132
toxicity ([4]; rats, intravenously 1.5 mg/kg three times a week over 28 days): No toxicity was observed
